Data taken from patent US20260364068A1, “ANTIVIRAL USE OF HETEROARYL DERIVATIVE COMPOUND” (UIF (University Industry Foundation), Yonsei University, priority 2022, published 2026).
Where two headings read alike, the source gives them in different places.

Tests used:
Format in all cases: cell-based
[1] = Cell viability measurement (MTS), Vero cells; details: monkey
Experimental: (§1) Experimental Example 3: Cell Viability Measurement
(§2) Vero cell line (VERO01WCB-1201, Ministry of Food and Drug Safety, Republic of Korea), Calu-3 cell line (KCLB #30055, Korea Cell Line Bank (KCLB), Republic of Korea), CellTiter 96® AQueous One Solution Cell Proliferation Assay kit (Promega, cat. #G3582), and Infinite M200 microplate reader (Tecan).
Vero cells were cultured at 37 °C and 5% CO2 in DMEM medium supplemented with 10% fetal bovine serum, 100 units/mL penicillin, and 100 μg/mL streptomycin.
(§3) Vero cells or Calu-3 cells were seeded in 96-well microplates and cultured for 24 hours until the cell confluency reached 20%. After the incubation, compounds were treated in DMSO at concentrations (1, 3, and 10 μM) to reach 0.5% v/v in each well, and reacted at 37 °C for 48 hours. Into each well of the incubated 96-well microplate, 3-(4,5-dimethylthiazol-2-yl)-5-(3-carboxymethoxyphenyl)-2-(4-sulfophenyl)-2H-tetrazolium salt (MTS) assay solution [CellTiter 96® AQueous One Solution Cell Proliferation Assay kit (Promega)] mixed with DMEM medium at a ratio of 1:5, was dispensed at 100 μL/well and incubated at 37 °C for 1 hour. The 490 nm and 690 nm absorbance was then measured using an Infinite M200 instrument.
(§4) The cell viability (also, referred to as cell survival rate) (%) by compound treatment was calculated using the following analysis method. The 690 nm background absorbance value was subtracted from the measured 490 nm absorbance value. Then, to obtain the cell viability of each test group, the viability of the DMSO-treated group that was not treated with the compound was set to 100% and then the relative viability 1 of each compound was calculated. Two to six repeated tests were performed to obtain the results, and the mean values of the results were categorized into the following ranges and shown in Table 5 below (A: 80% survived, B: 50-80% survived, N/A: not tested)

[2] = Cell viability measurement (MTS), Calu-3 cells; details: human
Experimental: as §1, §2
Calu-3 cells were cultured at 37 °C and 5% CO2 in MEM medium supplemented with 10% fetal bovine serum, 2.2 g/L sodium bicarbonate, 1% 100 units/mL penicillin, and 100 μg/mL streptomycin.
as §3, §4

[3] = tested on: Severe Acute Respiratory Syndrome Coronavirus Type 2; test: microbe, parasite or virus in culture; details: Calu-3, 10 uM, read-out: Virus replication inhibition efficacy
[4] = virus strain NCCP-43388, 48 hours
[5] = virus strain NCCP-43344, 48 hours

Cc1cscc1-c1cnc(Nc2cccc(-c3nc4ccccc4[nH]3)c2)nc1 [Example 43, N-(3-(1H-benzo[d]imidazol-2-yl)phenyl)-5-(4-methylthiophen-3-yl)pyrimidin-2-amine]
viability at 48 h, 1 µM [1]: > 80% | viability at 48 h, 10 µM [1]: > 80% | viability at 48 h, 1 µM [2]: > 80% | viability at 48 h, 3 µM [2]: 50 to 80%

Fc1ccc2nc(-c3cccc(Nc4ccc(-c5cccnn5)cn4)c3)[nH]c2c1 [Example 55]
viability at 48 h, 1 µM [1]: > 80% | viability at 48 h, 10 µM [1]: 50 to 80%

FC(F)(F)c1ccc2nc(-c3cccc(Nc4ccc(-c5ccccn5)cn4)c3)[nH]c2c1 [Example 57, N-{3-[6-(trifluoromethyl)-1H-benzo[d]imidazol-2-yl]phenyl}-[2,3′-bipyridin]-6′-amine]
viability at 48 h, 1 µM [1]: > 80% | viability at 48 h, 3 µM [1]: > 80% | viability at 48 h, 10 µM [1]: 50 to 80% | viability at 48 h, 1 µM [2]: 50 to 80%

c1ccc(-c2cnc(Nc3cccc(-c4nc5ccccc5[nH]4)c3)nc2)nc1 [Example 44, N-(3-(1H-benzo[d]imidazol-2-yl)phenyl)-5-(pyridin-2-yl)pyrimidin-2-amine]
inhibition at 10 µM [3, 4]: > 60% | viability at 48 h, 1 µM [2]: > 80% | viability at 48 h, 3 µM [2]: 50 to 80%

FC(F)(F)c1ccc2nc(-c3cccc(Nc4ccc(-c5cnccn5)cc4)c3)[nH]c2c1 [Example 29, N-[4-(pyrazin-2-yl)phenyl]-3-[6-(trifluoromethyl)-1H-benzo[d]imidazol-2-yl]aniline]
viability at 48 h, 1 µM [1]: > 80%

FC(F)(F)c1ccc2nc(-c3cccc(Nc4ccc(-c5ccccc5)nn4)c3)[nH]c2c1 [Example 1, 6-phenyl-N-(3-(6-(trifluoromethyl)-1H-benzo[d]imidazol-2-yl)phenyl)pyridazin-3-amine]
viability at 48 h, 1 µM [1]: > 80% | viability at 48 h, 3 µM [1]: > 80%

Fc1ccc2nc(-c3cccc(Nc4ccc(-c5cccnn5)cc4)c3)[nH]c2c1 [Example 25, 3-(6-fluoro-1H-benzo[d]imidazol-2-yl)-N-(4-(pyridazin-3-yl)phenyl)aniline]
inhibition at 10 µM [3, 5]: > 60% | viability at 48 h, 1 µM [1]: > 80% | viability at 48 h, 3 µM [1]: > 80% | viability at 48 h, 10 µM [1]: > 80%

CC(C)(C)c1ccc2nc(-c3cccc(Nc4ccc(-c5ccccc5)nn4)c3)[nH]c2c1 [Example 3, N-[3-(6-tert-butyl-1H-benzo[d]imidazol-2-yl)phenyl]-6-phenylpyridazin-3-amine]
viability at 48 h, 1 µM [1]: > 80% | viability at 48 h, 3 µM [1]: 50 to 80%

FC(F)(F)c1ccc2nc(-c3cccc(Nc4ncc(-c5ccccc5)cn4)c3)[nH]c2c1 [Example 14, 5-phenyl-N-(3-(6-(trifluoromethyl)-1H-benzo[d]imidazol-2-yl)phenyl)pyrimidin-2-amine]
viability at 48 h, 1 µM [1]: > 80%

COC(=O)c1ccc2nc(-c3cccc(Nc4ccc(-c5cccnn5)cc4)c3)[nH]c2c1 [Example 61, methyl 2-(3-((4-(pyridazin-3-yl)phenyl)amino)phenyl)-1H-benzo[d]imidazol-6-carboxylate]
viability at 48 h, 1 µM [1]: > 80%

FC(F)(F)c1ccc2nc(-c3cccc(Nc4ncc(-c5cccnn5)cn4)c3)[nH]c2c1 [Example 52, 5-(pyridazin-3-yl)-N-(3-(6-(trifluoromethyl)-1H-benzo[d]imidazol-2-yl)phenyl)pyrimidin-2-amine]
viability at 48 h, 1 µM [1]: > 80% | viability at 48 h, 3 µM [1]: > 80% | viability at 48 h, 10 µM [1]: > 80% | viability at 48 h, 1 µM [2]: 50 to 80% | viability at 48 h, 3 µM [2]: 50 to 80% | viability at 48 h, 10 µM [2]: 50 to 80%

c1cc(Nc2ccc(-c3cccnn3)cn2)cc(-c2nc3ccccc3[nH]2)c1 [Example 56, N-[3-(1H-benzo[d]imidazol-2-yl)phenyl]-5-(pyridazin-3-yl)pyridin-2-amine]
viability at 48 h, 1 µM [1]: > 80% | viability at 48 h, 10 µM [1]: > 80% | viability at 48 h, 1 µM [2]: > 80% | viability at 48 h, 3 µM [2]: 50 to 80%

FC(F)(F)Oc1ccc2nc(-c3cccc(Nc4ccc(-c5ccccc5)nn4)c3)[nH]c2c1 [Example 6, 6-phenyl-N-(3-(6-(trifluoromethoxy)-1H-benzo[d]imidazol-2-yl)phenyl)pyridazin-3-amine]
viability at 48 h, 1 µM [1]: > 80% | viability at 48 h, 3 µM [1]: 50 to 80%

Fc1ccc2nc(-c3cccc(Nc4ccc(-c5ccncn5)cn4)c3)[nH]c2c1 [Example 72, N-(3-(6-fluoro-1H-benzo[d]imidazol-2-yl)phenyl)-5-(pyrimidin-4-yl)pyridin-2-amine]
viability at 48 h, 3 µM [1]: > 80%

Fc1ccc2nc(-c3cccc(Nc4ccc(-c5ccccn5)cn4)c3)[nH]c2c1 [Example 58, N-(3-(6-fluoro-1H-benzo[d]imidazol-2-yl)phenyl)-[2,3′-bipyridine]-6′-amine]
viability at 48 h, 1 µM [1]: > 80% | viability at 48 h, 3 µM [1]: > 80% | viability at 48 h, 1 µM [2]: 50 to 80%

c1cncc(-c2ccc(Nc3cccc(-c4nc5ccccc5[nH]4)c3)cc2)c1 [Example 31, N-[3-(1H-benzo[d]imidazol-2-yl)phenyl]-4-(pyridin-3-yl)aniline]
viability at 48 h, 1 µM [1]: > 80% | viability at 48 h, 10 µM [1]: 50 to 80% | viability at 48 h, 1 µM [2]: 50 to 80%

Clc1cc2nc(-c3cccc(Nc4ccc(-c5ccccc5)cn4)c3)[nH]c2cc1Cl [Example 13, N-[3-(5,6-dichloro-1H-benzo[d]imidazol-2-yl)phenyl]-5-phenylpyridin-2-amine]
inhibition at 10 µM [3, 5]: > 60% | viability at 48 h, 1 µM [1]: > 80% | viability at 48 h, 3 µM [1]: > 80% | viability at 48 h, 10 µM [1]: 50 to 80%

FC(F)(F)c1ccc2nc(-c3cccc(Nc4ccc(-c5ncccn5)cn4)c3)[nH]c2c1 [Example 100, 5-pyrimidin-2-yl-N-[3-[6-(trifluoromethyl)-1H-benzo[d]imidazol-2-yl]phenyl]pyridin-2-amine]
viability at 48 h, 1 µM [2]: 50 to 80%

c1ccc(-c2ccc(Nc3cccc(-c4nc5ccccc5[nH]4)c3)nc2)nc1 [Example 59, N-[3-(1H-benzo[d]imidazol-2-yl)phenyl]-[2,3′-bipyridin]-6′-amine]
viability at 48 h, 1 µM [1]: > 80% | viability at 48 h, 1 µM [2]: > 80% | viability at 48 h, 3 µM [2]: 50 to 80%

Fc1cc2nc(-c3cccc(Nc4cnc(-c5ccccn5)cn4)c3)[nH]c2cc1F [Example 298, N-(3-(5,6-difluoro-1H-benzo[d]imidazol-2-yl)phenyl)-5-(pyridin-2-yl)pyrazin-2-amine]
inhibition at 10 µM [3, 4]: 30 to 60%

Clc1cc2[nH]c(-c3cccc(Nc4ncc(-c5cscn5)cn4)c3)nc2cn1 [Example 303, N-(3-(6-chloro-1H-imidazo[4,5-c]pyridin-2-yl)phenyl)-5-(thiazol-4-yl)pyrimidin-2-amine]
viability at 48 h, 10 µM [2]: 50 to 80%

Fc1cc2nc(-c3cccc(Nc4ccc(-c5ccccc5)nn4)c3)[nH]c2cc1Br [Example 4, N-[3-(6-bromo-5-fluoro-1H-benzo[d]imidazol-2-yl)phenyl]-6-phenylpyridazin-3-amine]
viability at 48 h, 1 µM [1]: > 80% | viability at 48 h, 3 µM [1]: > 80% | viability at 48 h, 10 µM [1]: 50 to 80%

Fc1cccc(-c2ccc(Nc3cccc(-c4nc5ccc(C(F)(F)F)cc5[nH]4)c3)nc2)c1 [Example 18, 5-(3-fluorophenyl)-N-(3-(6-(trifluoromethyl)-1H-benzo[d]imidazol-2-yl)phenyl)pyridin-2-amine]
viability at 48 h, 1 µM [1]: > 80% | viability at 48 h, 10 µM [1]: 50 to 80%

CC(C)(C)c1ccc2nc(-c3cccc(Nc4ccc(-c5cccnn5)cc4)c3)[nH]c2c1 [Example 107, 3-(6-tert-butyl-1H-benzo[d]imidazol-2-yl)-N-(4-pyridazin-3-ylphenyl)aniline]
viability at 48 h, 1 µM [2]: > 80%
